Measurements reported in ChEMBL document CHEMBL1201862, “PubChem BioAssay data set” (2004).
Active and inactive are the calls of the source.

Columns and labels:
[1] = molecular target: T1, Oxysterols receptor LXR-beta (Homo sapiens, UniProt P55055); assay type: functional, cell-based;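 further: agonist activity at LXR measured by a cell-based luminescence readout across a dose range, run as a counterscreen for daf-12 agonists; HEK293 cells with Gal4-LXR fusion and GAL4-driven luciferase reporter; potency for activation of Gal4-LXR reporter so compounds are agonists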
T1 sequence (P55055 whole entry): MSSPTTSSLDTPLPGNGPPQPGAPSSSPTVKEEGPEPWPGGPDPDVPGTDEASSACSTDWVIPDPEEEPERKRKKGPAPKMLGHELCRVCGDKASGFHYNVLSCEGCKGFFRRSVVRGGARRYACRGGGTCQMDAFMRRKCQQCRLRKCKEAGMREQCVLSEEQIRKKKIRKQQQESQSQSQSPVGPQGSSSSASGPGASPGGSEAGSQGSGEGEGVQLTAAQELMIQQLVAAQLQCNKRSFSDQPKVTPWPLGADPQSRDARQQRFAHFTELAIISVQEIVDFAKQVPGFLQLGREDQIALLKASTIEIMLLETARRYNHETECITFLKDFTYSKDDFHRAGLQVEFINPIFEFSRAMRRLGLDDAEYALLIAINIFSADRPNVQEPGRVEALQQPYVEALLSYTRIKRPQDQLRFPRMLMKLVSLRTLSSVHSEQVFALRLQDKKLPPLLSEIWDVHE

Protein skinhead-1 = molecular target: T2, Protein skinhead-1 (Caenorhabditis elegans, UniProt P34707); assay type: functional
T2 sequence (P34707 whole entry): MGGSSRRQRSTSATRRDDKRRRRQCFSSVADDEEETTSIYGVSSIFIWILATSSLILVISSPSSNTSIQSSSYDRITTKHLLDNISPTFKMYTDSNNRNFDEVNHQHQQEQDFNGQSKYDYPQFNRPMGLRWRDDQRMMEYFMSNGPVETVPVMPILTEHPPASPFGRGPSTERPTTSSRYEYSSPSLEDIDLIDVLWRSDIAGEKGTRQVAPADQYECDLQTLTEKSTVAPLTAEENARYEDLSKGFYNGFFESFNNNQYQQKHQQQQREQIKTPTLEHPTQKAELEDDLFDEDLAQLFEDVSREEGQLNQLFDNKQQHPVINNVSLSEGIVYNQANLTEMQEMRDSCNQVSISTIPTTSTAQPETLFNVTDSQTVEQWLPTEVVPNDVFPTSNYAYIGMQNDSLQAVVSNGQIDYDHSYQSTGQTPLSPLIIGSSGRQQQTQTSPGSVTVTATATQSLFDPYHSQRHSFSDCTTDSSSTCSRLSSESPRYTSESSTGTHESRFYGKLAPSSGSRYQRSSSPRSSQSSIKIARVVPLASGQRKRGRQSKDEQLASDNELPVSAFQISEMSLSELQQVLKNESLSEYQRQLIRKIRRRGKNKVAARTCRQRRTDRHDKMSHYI

Steroidogenic factor 1 = Steroidogenic factor 1 (Homo sapiens, UniProt Q13285); assay: Counterscreen for inverse agonists of the liver receptor homolog-1 (LRH-1; NR5A2): Luminescence-based cell-based high throughput dose response assay to identify inverse agonists of the Steroidogenic Factor 1 Nuclear Receptor (SF1; NR5A1).; assay type: functional
[2] = molecular target: Nuclear receptor subfamily 5 group A member 2 (Homo sapiens, UniProt O00482); assay type: functional, cell-based;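 further: HEK293T cells transfected with LRH-1 and a StAR promoter luciferase reporter; potency for inhibitors that lower LRH-1 driven reporter light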
[3] = nonselective StAR promoter luciferase inhibitors – cell-based, luminescence, luciferase reporter, counter-screen for LRH-1 inverse agonist project, dose response (AID 651969); assay type: functional
fMet-Leu-Phe receptor = fMet-Leu-Phe receptor (Homo sapiens, UniProt P21462); assay: formyl peptide receptor binders – dose response (AID 519); assay type: functional
[4] = loss of viability in HepG2 cells – cell-based, CellTiter-Glo, cherry-picked, cytotoxicity control for Shn3 inhibitor project, dose response (AID 624134); assay type: functional
[5] = activation of miR-122 Renilla sensor silencing – cell-based, Huh7 psiCHECK-miR122, Renilla luciferase, cherry-picked, dose response (AID 651956); assay type: functional;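 further: huh7 hepatoma cells stably carrying a psiCHECK-2 miR-122 sensor plasmid; renilla luciferase signal reporting endogenous miR-122 activity after 48 h compound exposure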
[6] = reduction of Shn3 3'UTR-driven luciferase in osteoblasts – cell-based, Clone20 osteoblasts, firefly luciferase, cherry-picked, dose response (AID 624132); assay type: functional;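 further: firefly luciferase luminescence from reporter carrying the Shn3 3'UTR in osteoblasts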
[7] = general mammalian cell viability loss – inhibitor set, cherry-pick, set 2, cytotoxicity control for miR-122 modulator project, dose response (AID 720697); assay type: functional, cell-based
[8] = non-specific 3'UTR reporter inhibition in Clone20-Shn3RL – cell-based, Renilla luciferase, cherry-picked, counter-screen for Shn3 inhibitor project, dose response (AID 624133); assay type: functional
[9] = general cell-killing toxicity readout – plate reader, dry powder samples, cytotoxicity control for PAX8 inhibitor project, dose response (AID 743021); assay type: functional, cell-based
Paired box protein Pax-8 = Paired box protein Pax-8 (Homo sapiens, UniProt Q06710); assay: PAX8 transcriptional activity inhibition in RMG-I – RMG-I cells, luciferase, cherry-pick, dose response (AID 687027); assay type: functional, cell-based;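 further: luciferase reporter driven by Pax8 target thyroperoxidase promoter measured by SteadyGlo luminescence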
[10] = molecular target: SWI/SNF-related matrix-associated actin-dependent regulator of chromatin subfamily A member 2 (Homo sapiens, UniProt P51531); assay: Luminescence-based cell-based high throughput dose response assay to identify activators of the function of SWI/SNF related, matrix associated, actin dependent regulator of chromatin, subfamily a, member 2 (SMARCA2, BRM).; assay type: functional
[11] = Counterscreen for activators of the function of SWI/SNF related, matrix associated, actin dependent regulator of chromatin, subfamily a, member 2 (SMARCA2, BRM): Luminescence-based cell-based high throughput dose response assay to identify non-selective compounds using the VP16 reporter assay.; assay type: functional
cells [12] = assay type: functional, cell-based
[13] = luciferase reporter signal suppression in cells – H4 neuroglioma cells, luminescence, dose response (AID 1990); assay type: functional, cell-based
[14] = rise of 4N DNA cells, HeLa – IC50, dose response (AID 1117351); assay type: functional, cell-based
[15] = luciferase reporter signal reduction – luminescence, H4-C neuroglioblastoma cells, dose response (AID 2458); assay type: functional, cell-based;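 further: H4 neuroglioblastoma cells stably carrying a luciferase reporter gene fusion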
[16] = molecular target: T3, Nuclear receptor subfamily 0 group B member 1 (Homo sapiens, UniProt P51843); assay type: functional, cell-based;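 further: HEK293T cells transfected with SF-1 and DAX-1 plus StAR promoter luciferase reporter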
T3 sequence (P51843 whole entry): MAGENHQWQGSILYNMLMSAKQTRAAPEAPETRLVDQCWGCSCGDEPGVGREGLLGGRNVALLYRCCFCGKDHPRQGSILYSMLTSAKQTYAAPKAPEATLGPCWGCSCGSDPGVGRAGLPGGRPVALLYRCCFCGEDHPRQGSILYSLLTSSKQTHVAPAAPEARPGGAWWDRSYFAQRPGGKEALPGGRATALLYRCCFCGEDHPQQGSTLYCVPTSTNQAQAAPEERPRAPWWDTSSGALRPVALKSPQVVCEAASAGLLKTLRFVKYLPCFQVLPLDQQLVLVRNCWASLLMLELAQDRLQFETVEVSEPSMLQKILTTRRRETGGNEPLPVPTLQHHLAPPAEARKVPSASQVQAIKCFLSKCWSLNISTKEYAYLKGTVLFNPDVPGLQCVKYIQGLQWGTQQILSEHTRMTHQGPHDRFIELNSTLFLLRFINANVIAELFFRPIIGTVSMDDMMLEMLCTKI

[17] = HEK-293T viability loss after treatment – luminescence, T-cell screen hits, cytotoxicity control for TCR NF-kB inhibitor project, dose response (AID 489026); assay type: functional, cell-based;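 further: cells exposed to compound about 14 hours before the viability readout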
cells [18] = assay type: functional, cell-based; remark: listed apart in the source
[19] = alpha-synuclein stem-loop luciferase translation blockers – H4 neuroglioma cells, luminescence, confirmation (AID 1988); assay type: functional, cell-based
[20] = alpha-synuclein stem-loop translation blockers – luminescence, H4 neuroglioblastoma cells, dose confirmation, confirmation (AID 2454); assay type: functional, cell-based;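 further: H4 neuroglioblastoma cells carrying an alpha-synuclein 5'UTR luciferase reporter; potency for inhibition of the luciferase signal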
[21] = rise of 2N DNA cells, HeLa – IC50, dose response (AID 1117349); assay type: functional, cell-based

Sequence of Paired box protein Pax-8 (Q06710 whole entry): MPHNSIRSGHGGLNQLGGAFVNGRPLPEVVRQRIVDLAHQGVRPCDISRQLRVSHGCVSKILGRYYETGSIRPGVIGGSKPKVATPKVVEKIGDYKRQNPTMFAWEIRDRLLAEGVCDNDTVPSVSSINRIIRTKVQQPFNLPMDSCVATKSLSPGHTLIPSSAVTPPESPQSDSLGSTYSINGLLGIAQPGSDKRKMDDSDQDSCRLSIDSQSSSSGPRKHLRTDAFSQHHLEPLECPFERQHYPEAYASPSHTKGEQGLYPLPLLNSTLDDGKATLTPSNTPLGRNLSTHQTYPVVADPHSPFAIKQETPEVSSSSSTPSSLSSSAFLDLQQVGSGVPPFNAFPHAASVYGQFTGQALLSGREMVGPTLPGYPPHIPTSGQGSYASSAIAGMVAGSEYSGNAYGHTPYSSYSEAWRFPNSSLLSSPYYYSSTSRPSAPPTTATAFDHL
Sequence of fMet-Leu-Phe receptor (P21462 whole entry): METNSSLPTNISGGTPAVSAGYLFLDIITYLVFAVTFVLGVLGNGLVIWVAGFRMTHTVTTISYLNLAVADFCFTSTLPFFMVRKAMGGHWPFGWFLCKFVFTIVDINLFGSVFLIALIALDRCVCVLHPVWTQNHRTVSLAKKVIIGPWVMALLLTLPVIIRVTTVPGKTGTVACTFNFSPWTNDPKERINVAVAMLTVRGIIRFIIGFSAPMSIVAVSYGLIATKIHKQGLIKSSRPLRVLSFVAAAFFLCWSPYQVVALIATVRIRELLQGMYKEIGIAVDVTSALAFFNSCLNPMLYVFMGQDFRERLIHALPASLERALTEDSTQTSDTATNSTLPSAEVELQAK
Sequence of Nuclear receptor subfamily 5 group A member 2 (O00482 whole entry): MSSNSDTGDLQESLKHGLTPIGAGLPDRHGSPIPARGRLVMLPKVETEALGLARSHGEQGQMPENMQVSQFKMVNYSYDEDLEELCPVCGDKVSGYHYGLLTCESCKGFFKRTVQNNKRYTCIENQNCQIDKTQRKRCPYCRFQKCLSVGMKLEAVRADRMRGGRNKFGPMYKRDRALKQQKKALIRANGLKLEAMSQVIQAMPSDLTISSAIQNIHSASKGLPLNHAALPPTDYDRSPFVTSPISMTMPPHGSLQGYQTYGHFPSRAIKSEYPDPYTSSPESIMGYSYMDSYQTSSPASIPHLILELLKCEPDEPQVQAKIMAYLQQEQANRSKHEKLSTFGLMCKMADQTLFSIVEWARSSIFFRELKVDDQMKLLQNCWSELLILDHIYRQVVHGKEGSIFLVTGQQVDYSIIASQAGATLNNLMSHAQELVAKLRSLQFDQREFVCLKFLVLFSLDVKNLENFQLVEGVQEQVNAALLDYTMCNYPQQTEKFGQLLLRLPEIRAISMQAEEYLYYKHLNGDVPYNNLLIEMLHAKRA
Sequence of SWI/SNF-related matrix-associated actin-dependent regulator of chromatin subfamily A member 2 (P51531 whole entry): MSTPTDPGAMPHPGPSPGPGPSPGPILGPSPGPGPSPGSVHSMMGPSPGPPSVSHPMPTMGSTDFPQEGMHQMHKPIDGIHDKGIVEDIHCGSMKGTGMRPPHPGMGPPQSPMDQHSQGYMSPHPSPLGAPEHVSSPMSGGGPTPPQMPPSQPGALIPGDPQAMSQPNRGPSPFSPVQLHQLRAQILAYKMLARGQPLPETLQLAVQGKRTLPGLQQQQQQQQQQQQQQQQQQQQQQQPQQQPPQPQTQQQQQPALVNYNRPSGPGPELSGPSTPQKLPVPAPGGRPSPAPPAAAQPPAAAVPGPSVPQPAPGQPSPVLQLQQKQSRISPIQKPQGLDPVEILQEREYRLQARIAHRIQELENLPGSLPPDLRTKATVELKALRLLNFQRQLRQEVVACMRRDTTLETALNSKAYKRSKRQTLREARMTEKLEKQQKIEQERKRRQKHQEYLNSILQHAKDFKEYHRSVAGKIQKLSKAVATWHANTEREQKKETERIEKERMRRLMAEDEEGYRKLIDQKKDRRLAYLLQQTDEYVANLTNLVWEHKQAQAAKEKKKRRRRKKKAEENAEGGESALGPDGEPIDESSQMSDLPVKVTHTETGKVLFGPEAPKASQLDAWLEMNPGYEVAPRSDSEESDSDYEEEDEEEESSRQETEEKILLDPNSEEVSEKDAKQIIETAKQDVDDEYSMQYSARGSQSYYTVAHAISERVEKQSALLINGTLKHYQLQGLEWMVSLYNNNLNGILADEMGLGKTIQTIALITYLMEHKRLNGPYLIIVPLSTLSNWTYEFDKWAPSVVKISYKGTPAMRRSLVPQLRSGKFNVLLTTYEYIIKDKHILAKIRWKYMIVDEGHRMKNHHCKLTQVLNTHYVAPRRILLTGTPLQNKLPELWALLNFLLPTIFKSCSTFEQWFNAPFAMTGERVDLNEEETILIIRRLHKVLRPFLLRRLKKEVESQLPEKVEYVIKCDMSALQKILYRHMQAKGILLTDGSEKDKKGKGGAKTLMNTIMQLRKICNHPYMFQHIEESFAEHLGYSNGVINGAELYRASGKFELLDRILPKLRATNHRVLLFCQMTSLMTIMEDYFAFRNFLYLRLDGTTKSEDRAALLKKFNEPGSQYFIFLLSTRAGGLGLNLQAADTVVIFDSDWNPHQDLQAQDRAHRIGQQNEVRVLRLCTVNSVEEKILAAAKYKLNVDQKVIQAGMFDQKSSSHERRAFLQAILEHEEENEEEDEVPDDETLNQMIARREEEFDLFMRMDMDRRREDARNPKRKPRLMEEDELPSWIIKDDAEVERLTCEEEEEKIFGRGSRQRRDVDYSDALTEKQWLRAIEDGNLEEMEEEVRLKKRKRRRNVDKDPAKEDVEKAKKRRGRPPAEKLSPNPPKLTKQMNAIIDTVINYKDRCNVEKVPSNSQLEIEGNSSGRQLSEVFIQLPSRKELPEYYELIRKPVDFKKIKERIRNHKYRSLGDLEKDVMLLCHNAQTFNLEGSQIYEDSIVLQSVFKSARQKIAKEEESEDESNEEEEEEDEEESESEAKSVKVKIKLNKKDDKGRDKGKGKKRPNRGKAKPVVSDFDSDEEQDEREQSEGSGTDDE
Sequence of Steroidogenic factor 1 (Q13285 whole entry): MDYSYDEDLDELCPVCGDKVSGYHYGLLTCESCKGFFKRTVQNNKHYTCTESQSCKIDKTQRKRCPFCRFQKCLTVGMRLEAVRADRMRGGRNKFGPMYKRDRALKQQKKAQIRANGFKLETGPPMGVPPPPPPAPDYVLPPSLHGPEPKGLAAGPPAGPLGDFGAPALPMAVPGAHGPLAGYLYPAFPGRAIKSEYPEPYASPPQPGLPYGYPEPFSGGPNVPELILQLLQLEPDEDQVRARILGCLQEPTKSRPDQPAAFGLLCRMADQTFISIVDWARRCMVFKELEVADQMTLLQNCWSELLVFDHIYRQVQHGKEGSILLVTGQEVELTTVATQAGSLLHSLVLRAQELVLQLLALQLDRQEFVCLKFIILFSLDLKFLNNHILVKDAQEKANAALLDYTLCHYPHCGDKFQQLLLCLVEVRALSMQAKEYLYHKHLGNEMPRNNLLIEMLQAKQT

S=C(c1ccc(-c2ccc(Cl)cc2)o1)N1CCCCC1
EC50 [1]: > 67.5 µM (inactive)

Clc1ccc(Nc2ccc3ccccc3n2)cc1
EC50 [1]: > 67.5 µM (inactive) | IC50 (Protein skinhead-1): > 100 µM (inactive)

CC1=CC(O)C(O)C2(C)C1CC1OC(=O)CC3C(C)C(O)C(=O)C2C13CO (centres undefined)
IC50 (Steroidogenic factor 1): 4.96 µM (active) | IC50 [2]: 6.91 µM (active) | IC50 [3]: 17.7 µM (inactive)

CCOc1ccc(C2C(C(=O)c3cccs3)=C(O)C(=O)N2CCCn2ccnc2)cc1 (centres undefined)
Ki (fMet-Leu-Phe receptor): 57.1 µM (inactive)

COc1ccccc1CNc1nc(NCC2CC2)nc2ccsc12
AC50 [4]: 39.9 µM (active) | AC50 [5]: 29.6 µM (active) | AC50 [6]: 4.16 µM (active) | AC50 [7]: 6.06 µM (active) | AC50 [8]: 6.69 µM (active)

CC(C)C#Cc1ccc2c(c1)O[C@H](CN(C)C(=O)c1ccncc1)[C@@H](C)CN([C@@H](C)CO)S2(=O)=O
AC50 [5]: 11.6 µM (active) | AC50 [7]: 0.461 µM (active)

Cc1ccc(S(=O)(=O)N(C)C[C@H]2Oc3ccc(NS(=O)(=O)c4ccc(F)cc4)cc3CC(=O)N([C@H](C)CO)C[C@H]2C)cc1
AC50 [9]: 52.8 µM (active) | AC50 (Paired box protein Pax-8): 21.5 µM (active)

O=C(Cc1ccc(-c2ccccc2)cc1)Nc1ccccn1 [DIFENPIRAMIDE]
EC50 [10]: > 91.2 µM (inactive) | EC50 [11]: > 91.2 µM (inactive)

COc1cc([C@@H]2c3cc4c(cc3[C@H](O)[C@H]3COC(=O)[C@H]23)OCO4)cc(OC)c1OC [PODOFILOX]
EC50 (cells [12]): 0.014 µM (active) | EC50 [13]: < 0.1 µM (active) | IC50 [14]: 0.0077 µM (active) | EC50 [15]: 0.015 µM (active) | IC50 [16]: 2.15 µM (active) | IC50 [17]: > 80 µM (inactive) | AC50 (Paired box protein Pax-8): < 0.26 µM (active) | IC50 (cells [18]): > 67.5 µM (inactive) | EC50 [19]: < 0.1 µM (active) | EC50 [20]: 0.008 µM (active) | IC50 [21]: 0.0089 µM (active)
